The target in the assay is T1, PRMT8 (Homo sapiens, UniProt Q9NR22).
T1 construct: Full-length human PRMT8 (NM_019854.4) isoform 1 transcript clone; made in house; host or cells: E. coli BL21(DE3) Gold
Put plainly: PRMT8 Biochemical Assay (3H-SAM Flashplate, peptide substrate). To be noted: 30 min preincubation, room temperature. An excerpt: S-adenosylmethionine (SAM), S-adenosylhomocysteine (SAH), bicine, Tween20, dimethylsulfoxide (DMSO), bovine skin gelatin (BSG), isopropyl-β-D-thiogalactopyranoside (IPTG), and Tris(2-carboxyethyl)phosphine hydrochloride solution (TCEP) were purchased from Sigma-Aldrich at the highest level of purity possible. ^3H-SAM was purchase from American Radiolabeled Chemicals with a specific activity of 80 Ci/mmol. 384-well streptavidin Flashplates were purchased from PerkinElmer.
Peptide representative of human histone H4 residues 31-45 was synthesized with an N-terminal linker-affinity tag motif and a C-terminal amide cap by 21st Century Biochemicals. The peptide was purified by high-performance liquid chromatography (HPLC) to greater than 95% purity and confirmed by liquid chromatography mass spectrometry (LC-MS). The sequence was Biot-Ahx-[…]-amide (SEQ ID NO.:8).
The resulting construct encodes an N-terminal GST tag and a thrombin cleavage sequence ([…] […] […] […]) (SEQ ID NO.:9) fused directly to Met 1 of PRMT8.
E. coli (BL21(DE3) Gold, Stratagene) made competent by the CaCl2 method were transformed with the PRMT8 construct and ampicillin selection. Protein over-expression was accomplished by growing the PRMT8 expressing E. coli clone and inducing expression with 0.3 mM IPTG at 16° C. The culture was grown for 12 hours, harvested by centrifugation, and stored at −80° C. for purification.
The column was washed with 50 mM phosphate buffer, 100 mM NaCl, 5% glycerol, 5 mM (3-mercaptoethanol, pH 7.8 and PRMT8 was eluted by 100 mM phosphate in the same buffer. Protein was concentrated and buffer was exchanged to 50 mM Tris, 300 mM NaCl, 10% glycerol, 5 mM β-mercaptoethanol, pH 7.8 by ultrafiltration. The purity of recovered protein was 89%.
General Procedure for PRMT8 Enzyme Assays on Peptide Substrates.
The assays were all performed in a buffer consisting of 20 mM Bicine (pH=7.6), 1 mM TCEP, 0.005% BSG, and 0.002% Tween 20, prepared on the day of use. Compounds in 100% DMSO (1 ul) were spotted into a polypropylene 384-well V-bottom plates (Greiner) using a Platemate Plus outfitted with a 384-channel head (Thermo Scientific). DMSO (1 ul) was added to Columns 11, 12, 23, 24, rows A-H for the maximum signal control and 1 ul of SAH, a known product and inhibitor of PRMT8, was added to columns 11, 12, 23, 24, rows I-P for the minimum signal control. A cocktail (40 ul) containing the PRMT8 enzyme was added by Multidrop Combi (Thermo-Fisher). The compounds were allowed to incubate with PRMT8 for 30 min at room temperature, then a cocktail (10 ul) containing ^3H-SAM and peptide was added to initiate the reaction (final volume=51 ul). The final concentrations of the components were as follows: PRMT8 was 1.5 nM, ^3H-SAM was 50 nM, non-radiolabeled SAM was 550 nM, peptide was 150 nM, SAH in the minimum signal control wells was 1 mM, and the DMSO concentration was 2%. The assays were stopped by the addition of non-radiolabeled SAM (10 ul) to a final concentration of 400 uM, which dilutes the ^3H-SAM to a level where its incorporation into the peptide substrate is no longer detectable. 50 ul of the reaction in the 384-well polypropylene plate was then transferred to a 384-well Flashplate and the biotinylated peptides were allowed to bind to the streptavidin surface for at least 1 hour before being washed once with 0.1% Tween20 in a Biotek ELx405 plate washer. The plates were then read in a PerkinElmer TopCount plate reader to measure the quantity of ^3H-labeled peptide bound to the Flashplate surface, measured as disintegrations per minute (dpm) or alternatively, referred to as counts per minute (cpm).
Where dpm=disintegrations per minute, cmpd=signal in assay well, and min and max are the respective minimum and maximum signal controls.
Where top and bottom are the normally allowed to float, but may be fixed at 100 or 0 respectively in a 3-parameter fit. […]

T1 sequence (Q9NR22 whole entry, canonical isoform): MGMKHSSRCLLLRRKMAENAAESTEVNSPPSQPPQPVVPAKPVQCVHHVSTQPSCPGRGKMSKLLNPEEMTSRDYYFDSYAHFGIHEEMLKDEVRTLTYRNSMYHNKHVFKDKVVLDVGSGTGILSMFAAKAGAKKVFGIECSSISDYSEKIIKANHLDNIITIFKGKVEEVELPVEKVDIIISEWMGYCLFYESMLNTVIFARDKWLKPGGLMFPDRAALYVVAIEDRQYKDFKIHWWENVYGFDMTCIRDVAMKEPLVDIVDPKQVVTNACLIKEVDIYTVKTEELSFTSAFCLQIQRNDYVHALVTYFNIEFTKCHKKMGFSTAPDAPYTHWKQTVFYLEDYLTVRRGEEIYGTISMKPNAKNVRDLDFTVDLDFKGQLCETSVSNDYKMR

In the case of `CN(CCN)Cc1c[nH]nc1-c1ccsc1` [Compound 3], the IC50 is 1.01 to 3 µM. Next, `CN(CCN)Cc1c[nH]nc1-c1cncnc1` [Compound 4]: 1.01 to 3 µM; `CN(CCN)Cc1c[nH]nc1-c1cccs1` [Compound 5]: 3.01 to 10 µM. Next, `CN(CCN)Cc1c[nH]nc1-c1ccco1` [Compound 6]: 3.01 to 10 µM; `CN(CCN)Cc1c[nH]nc1-c1ccoc1` [Compound 7]: 1.01 to 3 µM.

`CN(CCN)Cc1c[nH]nc1-c1cnn(C)c1` [Compound 8] registered an IC50 of 3.01 to 10 µM. In turn, `CN(CCN)Cc1c[nH]nc1-c1ccc2scnc2c1` [Compound 9] displayed an IC50 of 0.101 to 1 µM.

`Cc1noc(C)c1-c1n[nH]cc1CN(C)CCN` [Compound 10] showed an IC50 not below 10 µM. As for `COc1ncc(-c2n[nH]cc2CN(C)CCN)cn1` [Compound 11], the IC50 was 1.01 to 3 µM. Next, `CN(CCN)Cc1c[nH]nc1-c1cn[nH]c1` [Compound 12]: 1.01 to 3 µM. In the case of `CN(CCN)Cc1c[nH]nc1-c1cnc2[nH]ccc2c1` [Compound 13], the IC50 was in the range of 0.101 to 1 µM. Compound `CN(CCN)Cc1c[nH]nc1-c1cc[nH]n1` [Compound 14] came in with an IC50 not below 10 µM. In turn, `CN(CCN)Cc1c[nH]nc1-c1ccnn1C` [Compound 15] showed an IC50 of 3.01 to 10 µM. In the case of `CCn1cc(-c2n[nH]cc2CN(C)CCN)cn1` [Compound 16], the IC50 is 0.101 to 1 µM. In turn, `CN(CCN)Cc1c[nH]nc1-c1cnn(-c2ccccc2)c1` [Compound 17] showed an IC50 of 0.101 to 1 µM. Next, `CN(CCN)Cc1c[nH]nc1-c1cnn(CCO)c1` [Compound 18]: 1.01 to 3 µM; `CN(CCN)Cc1c[nH]nc1-c1ccc2cnn(C)c2c1` [Compound 19, N^1-methyl-N^1-((3-(1-methyl-1H-indazol-6-yl)-1H-pyrazol-4-yl)methyl)ethane-1,2-diamine]: 0.101 to 1 µM.

In turn, `CN(CCN)Cc1c[nH]nc1-c1ccc2ncnn2c1` [Compound 20] showed an IC50 of 1.01 to 3 µM. In turn, `CN(CCN)Cc1c[nH]nc1-c1ccc2nccn2c1` [Compound 21, N^1-((3-(imidazo[1,2-a]pyridin-6-yl)-1H-pyrazol-4-yl)methyl)-N^1-methylethane-1,2-diamine] gave an IC50 of 0.101 to 1 µM. In turn, `CC(C)n1cc(-c2n[nH]cc2CN(C)CCN)cn1` [Compound 22] gave an IC50 of 0.101 to 1 µM. Next, `CC(C)Cn1cc(-c2n[nH]cc2CN(C)CCN)cn1` [Compound 23, N^1-((2′-isobutyl-3,4′-bi(1H-pyrazol)-4-yl)methyl)-N^1-methylethane-1,2-diamine]: 0.101 to 1 µM; `CN(CCN)Cc1c[nH]nc1-c1cnn(Cc2ccccc2)c1` [Compound 24, N^1-((1′-benzyl-3,4′-bi(1H-pyrazol)-4-yl)methyl)-N^1-methylethane-1,2-diamine]: 0.101 to 1 µM; `CN(CCN)Cc1c[nH]nc1-c1ccc2[nH]ncc2c1` [Compound 27, N^1-((3-(1H-indazol-5-yl)-1H-pyrazol-4-yl)methyl)-N^1-methylethane-1,2-diamine]: 0.101 to 1 µM.

Take `CN(CCN)Cc1c[nH]nc1-c1cnc(C2CC2)nc1` [Compound 28]: the IC50 lay within 1.01 to 3 µM. As to `CN(CCN)Cc1c[nH]nc1-c1ccc[nH]1` [Compound 29], the IC50 was 3.01 to 10 µM. Next, `CN(CCN)Cc1c[nH]nc1-c1cccc2[nH]ncc12` [Compound 30]: 3.01 to 10 µM.

Usually IC50 stands for the concentration that gives 50% inhibition. The low end stands for greater potency, the high end for weaker potency.

These data come from US9630961B2, “Arginine methyltransferase inhibitors and uses thereof” (Epizyme, Inc., priority 2013, dated 2017).
